Structures can show the parent of a compound that is named as a salt.

For `CS(=O)(=O)N1CCCn2c(nc3c(N)nc4c(c32)CCCC4)C1` [Example 363, 9-(Methylsulfonyl)-2,3,4,8,9,10,11,12-octahydro-1H-[1,4]diazepino[1′,2′:1,2]imidazo[4,5c]quinolin-6-amine], the melting point was in the range of 270 to 272 °C.

`CS(=O)(=O)N1CCn2c(nc3c(N)nc4cc(Br)ccc4c32)C1` [Example 367, 3-Bromo-9-(methylsulfonyl)-8,9,10,11-tetrahydropyrazino[1′,2′:1,2]imidazo[4,5-c]quinolin-6-amine] came in with a melting point of 315 to 317 °C. `CS(=O)(=O)N1CCCn2c(nc3c(N)nc4cc(-c5cccnc5)ccc4c32)C1` [Example 366, 9-(Methylsulfonyl)-3-pyridin-3-yl-9,10,11,12-tetrahydro-8H-[1,4]diazepino[1′,2′:1,2]imidazo[4,5-c]quinolin-6-amine] returned a melting point of 302 °C.

`CS(=O)(=O)N1CCCn2c(nc3c(N)nc4ccccc4c32)C1` (as salt: trifluoroacetate) [Example 7, 9-(Methylsulfonyl)-9,10,11,12-tetrahydro-8H-[1,4]diazepino[1′,2′:1,2]imidazo[4,5-c]quinolin-6-amine trifluoroacetate] returned a melting point of 250 to 250.9 °C.

As for `CC1(C)Cn2c(nc3c(N)nc4ccccc4c32)CN1S(C)(=O)=O` [Example 3, 10,10-Dimethyl-9-(methylsulfonyl)-8,9,10,11-tetrahydropyrazino[1′,2′:1,2]imidazo[4,5-c]quinolin-6-amine], the melting point lay within 227 to 228 °C. As to `CS(=O)(=O)N1CCn2c(nc3c(N)nc4ccccc4c32)C1` (as salt: trifluoroacetate) [Example 5, 9-(Methylsulfonyl)-8,9,10,11-tetrahydropyrazino[1′,2′:1,2]imidazo[4,5-c]quinolin-6-amine trifluoroacetate], the melting point fell in the range of 242 to 243 °C. Compound `CS(=O)(=O)N1CCCn2c(nc3c(N)nc4ccccc4c32)C1` [Example 8, 9-(Methylsulfonyl)-9,10,11,12-tetrahydro-8H-[1,4]diazepino[1′,2′:1,2]imidazo[4,5-c]quinolin-6-amine] registered a melting point of 280 °C. Then `CC(C)(C)OC(=O)N1CCCn2c(nc3c(N)nc4ccccc4c32)C1` [Example 6, tert-Butyl 6-amino-11,12-dihydro-8H-[1,4]diazepino[1′,2′:1,2]imidazo[4,5-c]quinoline-9(10H)-carboxylate], with 213 °C; and `CS(=O)(=O)N1CCn2c(nc3c(N)nc4cc(OCc5ccccc5)ccc4c32)C1` [Example 368, 3-(Benzyloxy)-9-(methylsulfonyl)-8,9,10,11-tetrahydropyrazino[1′,2′:1,2]imidazo[4,5-c]quinolin-6-amine], with 266 to 268 °C; and `CC(C)(C)OC(=O)N1CCn2c(nc3c(N)nc4ccccc4c32)C1` [Example 4, tert-Butyl 6-amino-10,11-dihydropyrazino[1′,2′:1,2]imidazo[4,5-c]quinoline-9(8H)-carboxylate], with 207 °C. Under `CC(C)(C)[Si](C)(C)OC1CN(S(C)(=O)=O)Cc2nc3c(N)nc4ccccc4c3n2C1` (centres unmarked) [Example 1, 11-{[tert-Butyl(dimethyl)silyl]oxy}-9-(methylsulfonyl)-9,10,11,12-tetrahydro-8H-[1,4]diazepino[1′,2′:1,2]imidazo[4,5-c]quinolin-6-amine] stands 256 to 258 °C. In turn, `CS(=O)(=O)N1Cc2nc3c(N)nc4ccccc4c3n2CC(O)C1` (centres unmarked) [Example 2, 6-Amino-9-(methylsulfonyl)-9,10,11,12-tetrahydro-8H-[1,4]diazepino[1′,2′:1,2]imidazo[4,5-c]quinolin-11-ol] yielded a melting point of 282 to 283 °C. Under `CS(=O)(=O)N1CCCn2c(nc3c(N)nc4cc(Br)ccc4c32)C1` [Example 365, 3-Bromo-9-(methylsulfonyl)-9,10,11,12-tetrahydro-8H-[1,4]diazepino[1′,2′:1,2]imidazo[4,5-c]quinolin-6-amine] stands 303 °C; under `CS(=O)(=O)N1CCCn2c(nc3c(N)nc4cc(OCc5ccccc5)ccc4c32)C1` [Example 369, 3-(Benzyloxy)-9-(methylsulfonyl)-9,10,11,12-tetrahydro-8H-[1,4]diazepino[1′,2′:1,2]imidazo[4,5-c]quinolin-6-amine], 235 to 236 °C.

One may read the melting point as the temperature, or range, at which the solid turns liquid.

The values above are taken from patent US7888349B2, “Piperazine, [1,4]Diazepane, [1,4]Diazocane, and [1,5]Diazocane fused imidazo ring compounds” (3M Innovative Properties Company, priority 2003, dated 2011).
